Reference: US20240246905A1 (University of Leicester, priority 2021, published 2024)
Read-outs that look alike come from different tables or passages of the source.

Columns and labels:
S. aureus AS 68 biofilm = assay: Biofilm eradication, 24 hour old biofilms, crystal violet; type: cell-based
Protocol: The attenuation of biomass by the lead compounds in the 24 hour old biofilms was measured by crystal violet stain assay. […] Further assays were performed to study the biofilm attenuation properties of compound 41. At concentrations, as low as 2 μg/ml (the lowest concentration tested), there was still an 86% reduction of the biofilm depth (FIG. 4).
Eradication: To develop biofilms, 2.5 μL of an overnight culture of bacteria was added to individual wells in a 96-well plate each containing 100 μL TSB supplemented with 0.5% glucose and incubated at 37° C. for 24 hours. Following this, the medium in each well was first discarded and washed once with PBS before set concentrations of antibiotic was added and incubated at 37° C. for a further 18 hours. The medium in each well was then discarded, washed 4× with PBS before 150 μL 1% crystal violet was added and the plate was left to incubate at room temperature for a further 30 minutes. Following incubation, the medium in each well was first discarded before being washed 4× with PBS. 200 μL 7% acetic acid was then added and the wells were measured at OD595.

MRSA 252 [1] = assay: MIC before and after cysteine addition; type: cell-based, S. aureus; conditions: up to 24 hours
Description: It is well known that compounds bearing an isocyanide group are usually highly reactive, capable of reacting with electrophiles, nucleophiles and radicals.^(30) As a result, it was important to identify any stability issues which might be encountered by the lead compounds, both in storage and in the presence of glutathione and cysteine. […] Another common feature of the lead compounds is the vinyl fragment. It was hypothesized that the presence of glutathione and cysteine found in eukaryotic cells could potentially interact with the electrophilic alkene group in the compounds, thus shutting down their antibiotic activity. To probe this potentially detrimental in vivo process, compound 39 was subjected to glutathione for up to 24 hours whilst compound 41 was added to cysteine for the same length of time.

[2] = test system: MRSA 252, MSSA 476, S. aureus 15981, P. aeruginosa PA01 and E. coli DH5α; assay: Disc diffusion primary screening, five strains (statements in words); type: cell-based; conditions: 500 μg/mL
Protocol: As such, the minimum inhibition concentration (MICs) of biologically active compounds were further assessed using the broth dilution method against the S. aureus strains; MRSA 252 and MSSA 476 (Table 1). The results of both assays enabled key structural elements and functional groups required for the compounds to retain their antibiotic activity to be identified.
The antibiotic activity was determined using a Kirby-Bauer method according to Clinical Standard Laboratory Institute (CSLI) Guidelines (2017). Briefly, 180 μL of a 1 in 200 dilution (in LB or TSB) of overnight cultures of selected Gram negative and Gram positive bacteria were applied to an agar plate containing the solid growth medium, Mueller-Hinton agar (MHA). Sterile discs, inoculated with 50 μL of antibiotic, were first added to the agar plate before the plates were incubated for 24 hours at 37° C. Following incubation, the zone of inhibition (if it existed) was recorded.

MRSA 252 [3] = assay: LIVE/DEAD assay (SYTO 9 / propidium iodide); type: cell-based, S. aureus; conditions: 4×MIC
Protocol: To attempt to further confirm whether the membrane was indeed targeted by compound 41, a LIVE/DEAD assay was performed, in which MRSA 252 was inoculated with two dyes: SYTO 9 and propidium iodide (PI). Cells with compromised membranes will stain fluorescent red whilst those cells with intact membranes will stain fluorescent green. […] Contrary to this, cells with no antibiotic present stained fluorescent green (FIG. 7).
The LIVE/DEAD BacLight™ bacterial viability kit was purchased from Thermo Fischer Scientific and the assay was performed per manufactures instructions. The kit provides two nucleic acid stains; SYTO-9 and propidium iodide (PI), which allows live bacteria with intact membranes to be distinguished from bacteria with compromised membranes. Single colonies of MRSA 252 were added to individual wells containing Melinex® films and 3 mL TSB and incubated at 37° C. for 18 hours with minimal agitation (70 rpm). The growth media was then exposed to the antibiotics at various concentrations and incubated for 10 hours. The medium was then discarded in each well, washed with PBS before 200 μL of a solution containing both nucleic acid stains was added (50 μL of each component in 10 mL PBS) and left to incubate in the dark for 15 minutes at room temperature. […]

[4] = test system: C. neoformans H99; ATCC 208821; assay: Anti-fungal MIC (CO-ADD); type: cell-based
Protocol: (§1) Fungal strains were cultured for 3 days on Yeast Extract-Peptone Dextrose (YPD) agar at 30° C. A yeast suspension of 1×10^6 to 5×10^6 CFU/mL (as determined by OD530) was prepared from five colonies. […] All plates were covered and incubated at 35° C. for 36 hours without shaking. […] The absorbance was measured using a Biotek Multiflo Synergy HTX plate reader. In both cases, the percentage of growth inhibition was calculated for each well, using the negative control (media only) and positive control (fungi without inhibitors) on the same plate. […] Due to a higher variance in growth and inhibition, a lower threshold was applied to the data for C. neoformans. In addition, the maximal percentage of growth inhibition is reported as DMax, indicating any compounds with marginal activity.

C. albicans ATCC 90028 = assay: Anti-fungal MIC (CO-ADD); type: cell-based
Protocol: as §1

C. glabrata ATCC 90030 = assay: Anti-fungal MIC (CO-ADD); type: cell-based
Protocol: as §1

[5] = test system: C. deuterogattii ATCC 32609; assay: Anti-fungal MIC (CO-ADD); type: cell-based
Protocol: as §1

C. tropicalis ATCC 450 = assay: Anti-fungal MIC (CO-ADD); type: cell-based
Protocol: as §1

C. tropicalis ATCC 750 = assay: Anti-fungal MIC (CO-ADD); type: cell-based
Protocol: as §1

MRSA 252 biofilms = assay: Biofilm prevention, crystal violet; type: cell-based, S. aureus; conditions: 50 μg/mL
Protocol: The potential of the lead compounds to both inhibit S. aureus biofilm growth and to disrupt more established biofilms was next investigated. Since previous studies had determined each compounds MIC against planktonic MRSA bacteria, it was hypothesized that a compound concentration of 50 μg/mL (at or above the MIC of all lead compounds except 2) was a reasonable concentration to begin the study.
Prevention: 100 μL of a mixture of TSB supplemented with 0.5% glucose and antibiotic (1:1) was added to individual wells in 96-well plate. The wells were then inoculated with […] an overnight culture of bacteria and incubated at 37° C. for 24 hours. Following the pre-determined length of time, the medium in each well was discarded, washed twice with PBS before 150 μL of a 1% crystal violet solution was added and the plate was left to incubate at room temperature for a further 30 minutes. Each well was then washed a further 4× with PBS before 200 μL 7% acetic acid was added. The absorbance of each well was then measured at OD595.

[6] = Cryptococcus neoformans, ATCC208821, read-out: MIC
[7] = Candida albicans, ATCC90028, read-out: MIC
[8] = Nakaseomyces glabratus, ATCC90030, read-out: MIC
[9] = Candida tropicalis, ATCC450, read-out: MIC
[10] = Candida tropicalis, ATCC750, read-out: MIC

Compound | antibiotic activity in disc diffusion assays (in words) [2] | MIC [4, 6] | MIC (C. albicans ATCC 90028; [7]) | MIC (C. glabrata ATCC 90030; [8]) | MIC ([5]; read-out: MIC) | MIC (C. tropicalis ATCC 450; [9]) | MIC (C. tropicalis ATCC 750; [10]) | also measured
[C-]#[N+]/C=C/c1ccc(NC(C)=O)cc1/C=C/c1ccccc1 [Compound 41, N-(4-((E)-2-Isocyanovinyl)-3-((E)-styryl)phenyl)acetamide] | excellent activity against all three S. aureus strains, as well as P. aeruginosa PAO1 | 2 mg/L | 2 to 4 mg/L | 32 mg/L | 1 to 2 mg/L | 1 to 2 mg/L | 32 mg/L | reduction of the biofilm depth (S. aureus AS 68 biofilm; S. aureus AS 68, 2 μg/ml (the lowest concentration tested)): 86%; attenuation of biomass in 24 hour old biofilms (S. aureus AS 68 biofilm; S. aureus AS 68, 50 μg/mL, crystal violet): significant attenuation in biomass; MIC in the presence of cysteine (MRSA 252 [1]): remained unaffected; membrane integrity (LIVE/DEAD stain) (MRSA 252 [3]): significant membrane damage
[C-]#[N+]C=Cc1cc(Br)ccc1O [Compound 13] | – | 4 to 8 mg/L | 4 to 8 mg/L | > 32 mg/L | 4 mg/L | 4 mg/L | 16 mg/L | –
[C-]#[N+]/C=C/c1ccc(O)cc1/C=C/c1ccccc1 [Compound 36, 4-((E Z)-2-Isocyanovinyl)-3-((E)-styryl)phenol] | retained antibiotic activity | 4 to 8 mg/L | 16 mg/L | 32 mg/L | 2 mg/L | 2 mg/L | 32 mg/L | –
(2-Isocyanovinyl)-4-acetaamido benzene [Compound 22] | – | – | – | – | – | – | – | MIC [4]: >32 mg/L; MIC (C. albicans ATCC 90028): 16 mg/L; MIC (C. glabrata ATCC 90030): >32 mg/L; MIC [5]: >32 mg/L; MIC (C. tropicalis ATCC 450): >32 mg/L; MIC (C. tropicalis ATCC 750): >32 mg/L
[C-]#[N+]C=Cc1ccc(O)c(Br)c1 [Compound 14] | – | > 32 mg/L | 32 mg/L | > 32 mg/L | 32 mg/L | > 32 mg/L | > 32 mg/L | –
[C-]#[N+]C=Cc1ccc(O)cc1 [Compound 2, 4-(2-Isocyanovinyl)phenol] | – | – | – | – | – | – | – | prevention of MRSA 252 biofilm growth (MRSA 252 biofilms): entirely prevented biofilm formation
